{"source": "patent US20230338374A1", "about": "“MDM2 INHIBITORS FOR USE IN THE TREATMENT OR PREVENTION OF HEMATOLOGIC NEOPLASM RELAPSE AFTER HEMATOPOIETIC CELL TRANSPLANTATION” (Novartis AG, priority 2020, published 2023)", "key": {"[1]": {"details": "cited from earlier work"}, "[2]": {"details": "oral; no dose-limiting toxicities; cited from earlier work"}, "[3]": {"details": "cited from earlier work", "remark": "listed apart in the source"}, "[4]": {"system": "donor CD8^+ T-cells", "test": "T cell phenotyping in the GvL mouse model (WEHI-3B), spleen day 12", "type": "in vivo", "details": "allo-transplanted leukemia bearing BALB/c mice, vs vehicle", "from_the_text": "FIG. 3: MDM2-inhibition promotes cytotoxicity and longevity of donor T cells • (a-h) Scatter plots and representative histograms show expression of Perforin (a, b), CD107a (c, d), IFN-γ (e, f), TNF-α (g, h) of CD8^+ T-cells isolated from spleen on day 12 following allo-HCT of WEHI-3B leukemia bearing BALB/c mice transplanted with C57BL/6 BM plus allogeneic C57BL/6 T-cells and treated with either vehicle or MDM2-inhibitor RG-7112. Mean value±SEM from n=14-19 biologically independent animals per group from 2 experiments are shown and p-values were calculated using two-sided Mann-Whitney U test. (m) Quantification of donor-derived (H-2kb+) TCRb+CD8+CD27+ TIM3+ T cells from allo-transplanted leukemia bearing BALB/c mice treated with RG-7112 or vehicle as indicated. (a) A representative flow cytometry histogram depicts the mean fluorescence intensity (MFI) and scatter plot showing fold-change of MFI for CD69 of all living donor (H-2kb^+) CD8^+ T cells from leukemia bearing BALB/c mice undergoing allo-HCT and being treated with vehicle. […] P-values were calculated using the two-sided Mann-Whitney U test. […] P-values were calculated using the two-sided Mann-Whitney U test. No difference in CD8 T-cells/all CD3 T-cells was detected. […] Mean value±SEM from n=14-19 biologically independent animals per group from 2 experiments are shown and p-value was calculated using two-sided Mann-Whitney U test. […]"}, "[5]": {"details": "single oral doses; GI toxicities the most common AEs; cited from earlier work"}, "[6]": {"system": "advanced solid tumor", "details": "cited from earlier work"}, "[7]": {"details": "combined with pimasertib, cited from earlier work"}, "[8]": {"system": "p53-knockdown OCI-AML3 cells", "test": "Expression in p53-knockdown cells (flow cytometry, western blot)", "type": "cell-based, human", "details": "FIG. 9a", "procedure": "MFI of control-treated cells was set as 1.0. P-values were calculated using the two-sided Student's unpaired t-test.\nMFI of control-treated cells was set as 1.0. P-values were calculated using two-sided Student's unpaired t-test.\n(a) Representative western blot (left panel) showing the expression of MDM2, p53 and loading control (GAPDH) in WT OCI-AML3 cells or p53 knockdown OCI-AML3 cells exposed to […] doxorubicin for 4 hours, when indicated. Right panel: Quantification of the relative intensity of the protein bands for each group.\nP53 knockdown cells have been previously described (24). The p53 shRNA (p53.1224) had been cloned into a retroviral vector that co-expressed red fluorescent protein and which could be induced by doxycycline (24). […]\nFor excluding dead cells, the LIVE/DEAD Fixable Dead Cell Stain kit (Molecular Probes, USA) or LIVE/DEAD™ Fixable Aqua Dead Cell Stain Kit (Thermo Scientific) along with True Stain FcX (BioLegend) were used, according to the manufacturer's instructions. For all flurochrome-conjugated antibodies, optimal concentrations were determined using titration experiments. […] Data were acquired on the BD LSR Fortessa flow cytometer (BD Biosciences, Germany) and analyzed using Flow Jo software version 10.4 (Tree Star, USA). […]"}, "[9]": {"system": "OCI-AML3 cells", "test": "Killing assay with recombinant hTRAIL, viability by flow cytometry", "type": "cell-based, human", "details": "p53^−/− AML cells, FIG. 9e", "procedure": "After 48 hours limiting concentrations of hTRAIL (TNFSF 10) were added for 24 hours, where indicated. The viability of the AML cells was measured by flow cytometry. […] P-values were calculated using two-sided Student's unpaired t-test.\nWhere indicated wildtype OCI-AML3 (WT) or p53 knockout (p53^−/−) OCI-AML3 were incubated with 1 μM MDM2-inhibitor RG7112. After 48 hours limiting concentrations of hTRAIL (TNFSF 10) were added for 24 hours where indicated. Viability of cells was measured by flow cytometry. […] P-values were calculated using two-sided Student's unpaired t-test.\nFor Killing assays using recombinant hTRAIL ((TNFSF 10, Apo-2L, CD253;) […]®; ENZO), the ligand was added for 24 h 0.5 μg/ml (1:1000) for optimal killing and 0.25 μg/ml (1:2000) for limiting killing conditions to OCI-AML3 target cells. Viability of cells was assessed by LIVE/DEAD™ Fixable Aqua Dead Cell Stain Kit (Thermo Scientific). Data were acquired on the BD LSR Fortessa flow cytometer (BD Biosciences) and analyzed using Flow Jo software version 10.4 (Tree Star)."}}, "note": "Where two headings read alike, the source gives them in different places."}
{"molecule": "CC(C)[C@@H](CS(=O)(=O)C(C)C)N1C(=O)[C@@](C)(CC(=O)O)C[C@H](c2cccc(Cl)c2)[C@H]1c1ccc(Cl)cc1", "note": "[AMG 232]", "values": [{"measurement": "MTD", "setting": "[1]; dose escalation discontinued because of gastrointestinal AEs", "value": "not reached"}, {"measurement": "treatment-related AE decreased appetite", "setting": "[1]; in vivo", "value": 25, "unit": "%"}, {"measurement": "treatment-related AE diarrhea", "setting": "[1]; in vivo", "value": 56, "unit": "%"}, {"measurement": "treatment-related AE nausea", "setting": "[1]; in vivo", "value": 58, "unit": "%"}, {"measurement": "treatment-related AE vomiting", "setting": "[1]; in vivo", "value": 33, "unit": "%"}]}
{"molecule": "CCN1[C@@H](C(=O)NC23CCC(C(=O)O)(CC2)CC3)[C@H](c2cccc(Cl)c2F)[C@]2(C(=O)Nc3cc(Cl)ccc32)C12CCCCC2", "note": "[APG-115]", "values": [{"measurement": "optimum dose", "setting": "[2]", "value": 100, "unit": "mg"}]}
{"molecule": "COc1ncc(-c2nc3c(n2C(C)C)[C@H](c2ccc(Cl)cc2)N(c2cc(Cl)cn(C)c2=O)C3=O)c(OC)n1", "note": "[HDM201]", "values": [{"measurement": "grade 3/4 adverse event anemia", "setting": "[3]; Reg 1", "value": 8, "unit": "%"}, {"measurement": "grade 3/4 adverse event neutropenia", "setting": "[3]; Reg 1", "value": 26, "unit": "%"}, {"measurement": "grade 3/4 adverse event thrombocytopenia", "setting": "[3]; Reg 1", "value": 24, "unit": "%"}, {"measurement": "grade 3/4 adverse event anemia", "setting": "[3]; Reg 2", "value": 17, "unit": "%"}, {"measurement": "grade 3/4 adverse event neutropenia", "setting": "[3]; Reg 2", "value": 14, "unit": "%"}, {"measurement": "grade 3/4 adverse event thrombocytopenia", "setting": "[3]; Reg 2", "value": 28, "unit": "%"}]}
{"molecule": "CCOc1cc(C(C)(C)C)ccc1C1=N[C@@](C)(c2ccc(Cl)cc2)[C@@](C)(c2ccc(Cl)cc2)N1C(=O)N1CCN(CCCS(C)(=O)=O)CC1", "note": "[RG7112]", "values": [{"measurement": "CD8 T-cells/all CD3 T-cells", "setting": "[4]", "value": "No difference"}, {"measurement": "tolerability", "setting": "[5]", "value": "generally well tolerated"}]}
{"molecule": "CC(C)(C)C[C@@H]1N[C@@H](C(=O)N[C@H]2CC[C@H](O)CC2)[C@H](c2cccc(Cl)c2F)[C@]12C(=O)Nc1cc(Cl)ccc12", "note": "[SAR405838]", "values": [{"measurement": "3-month progression free rate", "setting": "[6]; 74 patients treated", "value": 32, "unit": "%"}, {"measurement": "best response, patients", "setting": "[6]; 74 patients treated", "value": 56, "unit": "%"}, {"measurement": "safety profile", "setting": "[6]; patients with advanced solid tumors", "value": "acceptable safety profile"}, {"measurement": "adverse event blood creatine phosphokinase", "setting": "[7]; 26 patients", "value": 77, "unit": "%"}, {"measurement": "adverse event diarrhoea", "setting": "[7]; 26 patients", "value": 81, "unit": "%"}, {"measurement": "adverse event nausea", "setting": "[7]; 26 patients", "value": 62, "unit": "%"}, {"measurement": "adverse event vomiting", "setting": "[7]; 26 patients", "value": 62, "unit": "%"}, {"measurement": "safety profile of the combination", "setting": "[7]", "value": "consistent with the safety profiles of both the drugs"}]}
{"molecule": "COc1cccc2c1C(=O)c1c(O)c3c(c(O)c1C2=O)C[C@@](O)(C(=O)CO)C[C@@H]3O[C@H]1C[C@H](N)[C@H](O)[C@H](C)O1", "note": "[doxorubicin]", "values": [{"measurement": "induction of p53", "setting": "[8]", "value": "decreased"}]}
{"molecule": "TRAIL: recombinant hTRAIL (TNFSF 10, Apo-2L, CD253) (protein) TSEETISTVQEKQQNISPLVRERGPQRVAAHITGTRGRSNTLSSPNSKNEKALGRKINSWESSRSGHSFLSNLHLRNGELVIHEKGFYYIYSQTYFRFQEEIKENTKNDKQMVQYIYKYTSYPDPILLMKSARNSCWSKDAEYGLYSIYQGGIFELKENDRIFVSVTNEHLIDMDHEASFFGAFLVG", "values": [{"measurement": "apoptosis induced", "setting": "[9]", "value": "less apoptosis"}]}
